Assay in all cases: relative viability (nuclei count vs DMSO), 5 days (fraction); higher = more cells survive
Compound in assay [1]: C1=CC2=NC=CN=C2C=C1/C=C/3\C(=O)NC(=O)S3
The procedure, abridged:
(§1)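 Lung cancer cell lines in 1536-well plates were kept overnight at 37 °C, then pinned with five library-drug doses (not always all listed) spaced by √10 on vehicle-anchored plates. After 5 days without medium change, cells were fixed, permeabilised and Hoechst-stained in one step, imaged at 4×, and nuclei were counted with MetaXpress. Viability is treated-well nuclei divided by vehicle-well nuclei, taken as the median over plates. Plates passed only with control CV below 25% and at least one doubling.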

Compound in a further assay: CCN1CCN(c2ccc(Nc3cc(N(C)C(=O)Nc4c(Cl)c(OC)cc(OC)c4Cl)ncn3)cc2)CC1 [BGJ398]
In a few lines:
as §1

Compound in assay [2]: C1=CC2=NC=CN=C2C=C1/C=C/3\C(=O)NC(=O)S3 + Cc1nc(NC(=O)N2CCC[C@H]2C(N)=O)sc1-c1ccnc(C(C)(C)C(F)(F)F)c1 [Alpelisib] (partner 2 µM)
In a few lines: (§2)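 Values are medians from duplicate plates. Each reflects relative viability, defined as the nuclei count of treated wells over that of vehicle wells. Lung cancer cell lines in 1536-well plates were pin-tool dosed one day after seeding with one drug alone or with a fixed anchor-drug dose plus five library-drug doses (not always all listed) in √10 steps, then fixed, stained and imaged at 4× after 5 days.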

Compound in the assay “BGJ398 + Pemetrexed”: CCN1CCN(c2ccc(Nc3cc(N(C)C(=O)Nc4c(Cl)c(OC)cc(OC)c4Cl)ncn3)cc2)CC1 [BGJ398] + Nc1nc2[nH]cc(CCc3ccc(C(=O)N[C@@H](CCC(=O)O)C(=O)O)cc3)c2c(=O)[nH]1 [Pemetrexed] (partner 0.2 µM)
The procedure, abridged: as §2

The text below walks through data of the supplement of paper PMC10307832.

Take HCC-15: the relative viability in assay [1] (0.02 µM) came out at 1; in assay [1] (0.06325 µM), 0.921; in assay [1] (0.2 µM) it was 0.972; in assay [1] (0.6325 µM), 0.921; in assay [1] (2 µM), 0.818; with BGJ398 (0.01 µM), 1.01. The relative viability in the assay with BGJ398 (0.03162 µM) came out at 1.01; with BGJ398 (0.1 µM), 1.07; with BGJ398 (0.3162 µM) it was 1.13; with BGJ398 (1 µM), 0.887; in assay [2] (first compound 0.02 µM), 0.813; in assay [2] (first compound 0.06325 µM) it was 0.923. The relative viability is 0.884 in assay [2] (first compound 0.2 µM); 0.849 in assay [2] (first compound 0.6325 µM); 0.839 in assay [2] (first compound 2 µM); 0.262 in the assay with BGJ398 + Pemetrexed (first compound 0.01 µM); 0.232 in the assay with BGJ398 + Pemetrexed (first compound 0.03162 µM); 0.219 in the assay with BGJ398 + Pemetrexed (first compound 0.1 µM). For the same cell line, the relative viability with BGJ398 + Pemetrexed (first compound 0.3162 µM) was determined as 0.223; with BGJ398 + Pemetrexed (first compound 1 µM), 0.221.

Turning to HCC-44, the relative viability is 0.895 in assay [1] (0.02 µM); 1.03 in assay [1] (0.06325 µM); 0.991 in assay [1] (0.2 µM); 0.965 in assay [1] (0.6325 µM); 0.745 in assay [1] (2 µM); 0.998 in the assay with BGJ398 (0.01 µM). Further, the relative viability amounted to 0.986 with BGJ398 (0.03162 µM); 0.987 with BGJ398 (0.1 µM); 0.993 in the assay with BGJ398 (0.3162 µM); 0.826 in the assay with BGJ398 (1 µM); 0.693 in assay [2] (first compound 0.02 µM); 0.893 in assay [2] (first compound 0.06325 µM). Besides, the relative viability in assay [2] (first compound 0.2 µM) turned out to be 0.852; in assay [2] (first compound 0.6325 µM), 0.764; in assay [2] (first compound 2 µM), 0.745; in the assay with BGJ398 + Pemetrexed (first compound 0.01 µM), 0.6; with BGJ398 + Pemetrexed (first compound 0.03162 µM), 0.67; with BGJ398 + Pemetrexed (first compound 0.1 µM) it was 0.656. Also, the relative viability in the assay with BGJ398 + Pemetrexed (first compound 0.3162 µM) was determined as 0.649; with BGJ398 + Pemetrexed (first compound 1 µM), 0.654.

For HCC-78, the relative viability in assay [1] (0.02 µM) stood at 0.9; in assay [1] (0.06325 µM) it was 0.845; in assay [1] (0.2 µM), 1.04; in assay [1] (0.6325 µM), 0.979; in assay [1] (2 µM) it was 0.507; with BGJ398 (0.01 µM) it was 0.881. In addition, the relative viability stood at 0.911 with BGJ398 (0.03162 µM); 0.933 in the assay with BGJ398 (0.1 µM); 1.02 with BGJ398 (0.3162 µM); 0.86 with BGJ398 (1 µM); 0.287 in assay [2] (first compound 0.02 µM); 0.304 in assay [2] (first compound 0.06325 µM). Further, the relative viability was determined as 0.378 in assay [2] (first compound 0.2 µM); 0.335 in assay [2] (first compound 0.6325 µM); 0.294 in assay [2] (first compound 2 µM); 1.02 with BGJ398 + Pemetrexed (first compound 0.01 µM); 0.885 with BGJ398 + Pemetrexed (first compound 0.03162 µM); 0.88 in the assay with BGJ398 + Pemetrexed (first compound 0.1 µM). In addition, the relative viability in the assay with BGJ398 + Pemetrexed (first compound 0.3162 µM) came to 0.91; with BGJ398 + Pemetrexed (first compound 1 µM), 0.896.

For the cell line HCC-366, the relative viability worked out at 0.979 in assay [1] (0.02 µM); 0.787 in assay [1] (0.06325 µM); 1.01 in assay [1] (0.2 µM); 0.942 in assay [1] (0.6325 µM); 0.985 in assay [1] (2 µM); 1.01 with BGJ398 (0.01 µM). Moreover, the relative viability with BGJ398 (0.03162 µM) was found to be 1.01; in the assay with BGJ398 (0.1 µM) it was 1.07; in the assay with BGJ398 (0.3162 µM), 1.08; with BGJ398 (1 µM) it was 0.974; in assay [2] (first compound 0.02 µM), 0.391; in assay [2] (first compound 0.06325 µM), 0.488. In addition, the relative viability came to 0.432 in assay [2] (first compound 0.2 µM); 0.361 in assay [2] (first compound 0.6325 µM); 0.259 in assay [2] (first compound 2 µM); 0.161 with BGJ398 + Pemetrexed (first compound 0.01 µM); 0.168 in the assay with BGJ398 + Pemetrexed (first compound 0.03162 µM); 0.163 with BGJ398 + Pemetrexed (first compound 0.1 µM). Besides, the relative viability with BGJ398 + Pemetrexed (first compound 0.3162 µM) turned out to be 0.172; with BGJ398 + Pemetrexed (first compound 1 µM), 0.132.
